Measurements reported in ChEMBL document CHEMBL4842337, “Synthesis, computational docking and biological evaluation of celastrol derivatives as dual inhibitors of SERCA and P-glycoprotein in cancer therapy” (Eur J Med Chem, 2021).
Active and inactive are the calls of the source. The rule behind the calls is not given here.

Key:
[1] = test system: A549; assay: Antiproliferative activity against human A549 cells assessed as inhibition of cell proliferation measured after 72 hrs by MTT assay; assay type: functional, cell-based; conditions: A549, 72 h
[2] = Induction of apoptosis in human HePAD38 cells assessed as necrotic cells at 1 uM measured after 24 hrs by Annexin-V/PI staining based flow cytometry assay (reference value: 0.903%); assay type: functional
[3] = test system: HeLa; assay: Inhibition of human SERCA in human HeLa cells assessed as alteration of calcium dynamics at 1 uM preincubated with compound C measured after 2 hrs by FLIPR calcium assay; assay type: cell-based
[4] = test system: HepG2; assay: Induction of apoptosis in human HepG2 cells assessed as necrotic cells at 1 uM measured after 24 hrs by Annexin-V/PI staining based flow cytometry assay (reference value: 0.725%); assay type: functional
[5] = Induction of apoptosis in human L02 cells assessed as viable cells at 1 uM measured after 24 hrs by Annexin-V/PI staining based flow cytometry assay (reference value: 97.5%); assay type: cell-based; conditions: read-out: Activity
[6] = Induction of apoptosis in human HePAD38 cells assessed as viable cells at 1 uM measured after 24 hrs by Annexin-V/PI staining based flow cytometry assay (reference value: 98.9%); assay type: functional; conditions: read-out: Activity
[7] = test system: HeLa; assay: Inhibition of human SERCA in human HeLa cells assessed as alteration of calcium dynamics at 1 uM measured by FLIPR calcium assay; assay type: cell-based
[8] = Induction of apoptosis in human HePAD38cells assessed as late apoptotic cells at 1 uM measured after 24 hrs by Annexin-V/PI staining based flow cytometry assay (reference value: 0.032%); assay type: functional, HePAD38
[9] = test system: HepG2; assay: Induction of apoptosis in human HepG2 cells assessed as viable cells at 1 uM measured after 24 hrs by Annexin-V/PI staining based flow cytometry assay (reference value: 99.1%); assay type: functional; conditions: read-out: Activity
[10] = test system: HepG2; assay: Antiproliferative activity against human HepG2 cells assessed as inhibition of cell proliferation measured after 72 hrs by MTT assay; assay type: functional, cell-based; conditions: HepG2, 72 h
[11] = test system: HepG2; assay: Induction of apoptosis in human HepG2 cells assessed as late apoptotic cells at 1 uM measured after 24 hrs by Annexin-V/PI staining based flow cytometry assay (reference value: 0.016%); assay type: functional
[12] = test system: HepG2; assay: Induction of apoptosis in human HepG2 cells assessed as early apoptotic cells at 1 uM measured after 24 hrs by Annexin-V/PI staining based flow cytometry assay (reference value: 0.181%); assay type: functional
[13] = Induction of apoptosis in human HePAD38 cells assessed as early apoptotic cells at 1 uM measured after 24 hrs by Annexin-V/PI staining based flow cytometry assay (reference value: 0.158%); assay type: functional
[14] = test system: L02; assay: Induction of apoptosis in human L02 cells assessed as necrotic cells at 1 uM measured after 24 hrs by Annexin-V/PI staining based flow cytometry assay (reference value: 0.848%); assay type: cell-based; conditions: l02, 24 h
[15] = test system: L02; assay: Cytotoxicity against human L02 cells assessed as cell viability measured after 72 hrs by MTT assay; assay type: cell-based; conditions: L02, 72 h
[16] = Selectivity index, ratio of IC50 for human L02 cells to IC50 for human HePAD38 cells
[17] = Selectivity index, ratio of IC50 for human CCD 19Lu cells to IC50 for human HepG2 cells; assay type: toxicity; conditions: CCD 19Lu cells versus HepG2 cells, read-out: Ratio IC50
[18] = Antiproliferative activity against human HePAD38 cells assessed as inhibition of cell proliferation measured after 72 hrs by MTT assay; assay type: functional, cell-based; conditions: HePAD38, 72 h
[19] = test system: L02; assay: Induction of apoptosis in human L02 cells assessed as late apoptotic cells at 1 uM measured after 24 hrs by Annexin-V/PI staining based flow cytometry assay (reference value: 0.133%); assay type: cell-based; conditions: l02, 24 h
[20] = Selectivity index, ratio of IC50 for human L02 cells to IC50 for human HepG2 cells; assay type: toxicity; conditions: L02 cells versus HepG2 cells, read-out: Ratio IC50
[21] = Selectivity index, ratio of IC50 for human CCD 19Lu cells to IC50 for human HePAD38 cells
[22] = test system: BEAS-2B; assay: Antiproliferative activity against human BEAS-2B cells assessed as inhibition of cell proliferation measured after 72 hrs by MTT assay; assay type: functional, cell-based
[23] = test system: L02; assay: Induction of apoptosis in human L02 cells assessed as early apoptotic cells at 1 uM measured after 24 hrs by Annexin-V/PI staining based flow cytometry assay (reference value: 1.49%); assay type: cell-based; conditions: l02, 24 h
[24] = test system: HeLa; assay: Inhibition of human SERCA in human HeLa cells assessed as depletion of SERCA-dependent calcium storage at 1 uM preincubated with TG by FLIPR calcium assay; assay type: cell-based

CC1=C(O)C(=O)C=C2C1=CC=C1[C@@]2(C)CC[C@@]2(C)[C@@H]3C[C@](C)(C(=O)NC(CC(=O)OC(C)(C)C)C(=O)NC(CC(=O)OC(C)(C)C)C(=O)OC(C)(C)C)CC[C@]3(C)CC[C@]12C (stereo not given in full)
IC50 [1]: 2.75 µM
Activity [2]: 5.58%
inhibition [3]: Active
Activity [4]: 12.4%
viability at 24 h, 1 µM [5]: 82.6%
viability at 1 µM [6]: 73.6%
inhibition [7]: Active
Activity [8]: 18.5%
viability at 1 µM [9]: 69.7%
IC50 [10]: 1.22 µM
Activity [11]: 14.5%
Activity [12]: 3.45%
Activity [13]: 2.27%
Activity [14]: 2.14%
IC50 [15]: 5.61 µM
Ratio IC50 [16]: 12.75
selectivity ratio [17]: 1.81
IC50 [18]: 0.44 µM
Activity [19]: 11.7%
selectivity ratio [20]: 4.6
Ratio IC50 [21]: 5
IC50 [22]: 0.786 µM
Activity [23]: 3.62%
inhibition [24]: Active

CC1=C(O)C(=O)C=C2C1=CC=C1[C@@]2(C)CC[C@@]2(C)[C@@H]3C[C@](C)(C(=O)NC(CCC(=O)N(CC(=O)OC(C)(C)C)C(=O)OC(C)(C)C)C(=O)OC(C)(C)C)CC[C@]3(C)CC[C@]12C (stereo not given in full)
IC50 [1]: 3.4 µM
IC50 [10]: 1.54 µM
IC50 [15]: 2.34 µM
Ratio IC50 [16]: 0.91
selectivity ratio [17]: 5.96
IC50 [18]: 2.55 µM
selectivity ratio [20]: 1.52
Ratio IC50 [21]: 3.4
IC50 [22]: 1.33 µM

CC1=C(O)C(=O)C=C2C1=CC=C1[C@@]2(C)CC[C@@]2(C)[C@@H]3C[C@](C)(C(=O)NC(CC(=O)OC(C)(C)C)C(=O)OC(C)(C)C)CC[C@]3(C)CC[C@]12C (stereo not given in full)
IC50 [1]: 4.92 µM
IC50 [10]: 3.56 µM
IC50 [15]: 15.4 µM
IC50 [18]: 11.8 µM
IC50 [22]: 3.72 µM

CC1=C(O)C(=O)C=C2C1=CC=C1[C@@]2(C)CC[C@@]2(C)[C@@H]3C[C@](C)(C(=O)NCCCNC(=O)[C@@]4(C)CC[C@@]5(C)CC[C@@]6(C)C7=CC=C8C(=CC(=O)C(O)=C8C)[C@@]7(C)CC[C@]6(C)[C@H]5C4)CC[C@]3(C)CC[C@]12C
IC50 [1]: 2.45 µM
IC50 [10]: 1.17 µM
IC50 [15]: 1.65 µM
IC50 [22]: 0.41 µM

CC1=C(O)C(=O)C=C2C1=CC=C1[C@@]2(C)CC[C@@]2(C)[C@@H]3C[C@](C)(C(=O)O)CC[C@]3(C)CC[C@]12C [CELASTROL]
IC50 [1]: 2.83 µM
Activity [2]: 9.47%
inhibition [3]: Active
Activity [4]: 1.61%
viability at 24 h, 1 µM [5]: 70.8%
viability at 1 µM [6]: 75.3%
inhibition [7]: Active
Activity [8]: 10.5%
viability at 1 µM [9]: 79.6%
IC50 [10]: 0.94 µM
Activity [11]: 10%
Activity [12]: 8.7%
Activity [13]: 4.73%
Activity [14]: 0.823%
IC50 [15]: 0.78 µM
Ratio IC50 [16]: 0.42
selectivity ratio [17]: 0.96
IC50 [18]: 1.85 µM
Activity [19]: 15.5%
selectivity ratio [20]: 0.82
Ratio IC50 [21]: 0.48
IC50 [22]: 0.454 µM
Activity [23]: 12.9%
inhibition [24]: Active

CC1=C(O)C(=O)C=C2C1=CC=C1[C@@]2(C)CC[C@@]2(C)[C@@H]3C[C@](C)(C(=O)NC(CC(=O)NC(CC(=O)OC(C)(C)C)C(=O)OC(C)(C)C)C(=O)OC(C)(C)C)CC[C@]3(C)CC[C@]12C (stereo not given in full)
IC50 [1]: 9.85 µM
IC50 [10]: 7.98 µM
IC50 [15]: 19.1 µM
Ratio IC50 [16]: 4.21
selectivity ratio [17]: 0.61
IC50 [18]: 4.54 µM
selectivity ratio [20]: 2.39
Ratio IC50 [21]: 1.07
IC50 [22]: 2.18 µM

CC1=C(O)C(=O)C=C2C1=CC=C1[C@@]2(C)CC[C@@]2(C)[C@@H]3C[C@](C)(C(=O)NC(CCC(=O)OC(C)(C)C)C(=O)OC(C)(C)C)CC[C@]3(C)CC[C@]12C (stereo not given in full)
IC50 [1]: 4.2 µM
IC50 [10]: 2.52 µM
IC50 [15]: 4.23 µM
IC50 [18]: 1.54 µM
IC50 [22]: 0.62 µM

CC1=C(O)C(=O)C=C2C1=CC=C1[C@@]2(C)CC[C@@]2(C)[C@@H]3C[C@](C)(C(=O)NC(CC(=O)NC(CCC(=O)OC(C)(C)C)C(=O)OC(C)(C)C)C(=O)OC(C)(C)C)CC[C@]3(C)CC[C@]12C (stereo not given in full)
IC50 [1]: 19.3 µM
IC50 [10]: 8.78 µM
IC50 [15]: 30.2 µM
Ratio IC50 [16]: 7.27
selectivity ratio [17]: 1.07
IC50 [18]: 4.15 µM
selectivity ratio [20]: 3.43
Ratio IC50 [21]: 2.28
IC50 [22]: 3.22 µM

CC1=C(O)C(=O)C=C2C1=CC=C1[C@@]2(C)CC[C@@]2(C)[C@@H]3C[C@](C)(C(=O)NC(CC(=O)OC(C)(C)C)C(=O)NC(CCC(=O)OC(C)(C)C)C(=O)OC(C)(C)C)CC[C@]3(C)CC[C@]12C (stereo not given in full)
IC50 [1]: 37.7 µM
IC50 [10]: 20.3 µM
IC50 [15]: 45.4 µM
Ratio IC50 [16]: 2.67
selectivity ratio [17]: 0.51
IC50 [18]: 17 µM
selectivity ratio [20]: 2.23
Ratio IC50 [21]: 0.61
IC50 [22]: 6.87 µM

CC1=C(O)C(=O)C=C2C1=CC=C1[C@@]2(C)CC[C@@]2(C)[C@@H]3C[C@](C)(C(=O)NC(CCC(=O)NC(CCC(=O)OC(C)(C)C)C(=O)OC(C)(C)C)C(=O)OC(C)(C)C)CC[C@]3(C)CC[C@]12C (stereo not given in full)
IC50 [1]: 6.19 µM
Activity [2]: 13.7%
inhibition [3]: Active
Activity [4]: 7.33%
viability at 24 h, 1 µM [5]: 86.7%
viability at 1 µM [6]: 80.3%
inhibition [7]: Active
Activity [8]: 4.17%
viability at 1 µM [9]: 80.2%
IC50 [10]: 4.27 µM
Activity [11]: 11%
Activity [12]: 1.55%
Activity [13]: 1.85%
Activity [14]: 1.64%
IC50 [15]: 9.55 µM
Ratio IC50 [16]: 2.01
selectivity ratio [17]: 13.4
IC50 [18]: 4.74 µM
Activity [19]: 5.44%
selectivity ratio [20]: 2.23
Ratio IC50 [21]: 12
IC50 [22]: 38.6 µM
Activity [23]: 6.2%
inhibition [24]: Active

CC1=C(O)C(=O)C=C2C1=CC=C1[C@@]2(C)CC[C@@]2(C)[C@@H]3C[C@](C)(C(=O)NCCCNC(=O)OC(C)(C)C)CC[C@]3(C)CC[C@]12C
IC50 [1]: 4.88 µM
IC50 [10]: 1.95 µM
IC50 [15]: 3.27 µM
IC50 [22]: 0.57 µM

COC(=O)CCNC(=O)[C@]1(C)CC[C@]2(C)CC[C@]3(C)C4=CC=C5C(=CC(=O)C(O)=C5C)[C@]4(C)CC[C@@]3(C)[C@@H]2C1
IC50 [1]: 1.91 µM
IC50 [10]: 1.04 µM
IC50 [15]: 0.55 µM
IC50 [22]: 0.32 µM
